This is an account of results in ChEMBL document CHEMBL5223147, “Discovery of a potent and subtype-selective TYK2 degrader based on an allosteric TYK2 inhibitor” (Bioorg Med Chem Lett, 2023).

Calls of active or inactive are those of the source. No cut-off for these calls is given here.

What all share (type): cell-based
Assay [1] addresses T1, Tyrosine-protein kinase JAK1 (Homo sapiens, UniProt P23458). The experiment in a line: Induction of JAK1 degradation in human Jurkat cells at 1 uM incubated for 6 hrs by Western blot analysis. For orientation: In western blotting, separated proteins are transferred to a membrane and probed.
The target of assay [2] is Tyrosine-protein kinase JAK2 (Homo sapiens) (UniProt O60674). The experiment in a line: Induction of JAK2 degradation in human Jurkat cells at 1 uM incubated for 6 hrs by Western blot analysis.
For assay [3], the target named is T2, Tyrosine-protein kinase JAK3 (Homo sapiens) (UniProt P52333).
T2 sequence (whole entry): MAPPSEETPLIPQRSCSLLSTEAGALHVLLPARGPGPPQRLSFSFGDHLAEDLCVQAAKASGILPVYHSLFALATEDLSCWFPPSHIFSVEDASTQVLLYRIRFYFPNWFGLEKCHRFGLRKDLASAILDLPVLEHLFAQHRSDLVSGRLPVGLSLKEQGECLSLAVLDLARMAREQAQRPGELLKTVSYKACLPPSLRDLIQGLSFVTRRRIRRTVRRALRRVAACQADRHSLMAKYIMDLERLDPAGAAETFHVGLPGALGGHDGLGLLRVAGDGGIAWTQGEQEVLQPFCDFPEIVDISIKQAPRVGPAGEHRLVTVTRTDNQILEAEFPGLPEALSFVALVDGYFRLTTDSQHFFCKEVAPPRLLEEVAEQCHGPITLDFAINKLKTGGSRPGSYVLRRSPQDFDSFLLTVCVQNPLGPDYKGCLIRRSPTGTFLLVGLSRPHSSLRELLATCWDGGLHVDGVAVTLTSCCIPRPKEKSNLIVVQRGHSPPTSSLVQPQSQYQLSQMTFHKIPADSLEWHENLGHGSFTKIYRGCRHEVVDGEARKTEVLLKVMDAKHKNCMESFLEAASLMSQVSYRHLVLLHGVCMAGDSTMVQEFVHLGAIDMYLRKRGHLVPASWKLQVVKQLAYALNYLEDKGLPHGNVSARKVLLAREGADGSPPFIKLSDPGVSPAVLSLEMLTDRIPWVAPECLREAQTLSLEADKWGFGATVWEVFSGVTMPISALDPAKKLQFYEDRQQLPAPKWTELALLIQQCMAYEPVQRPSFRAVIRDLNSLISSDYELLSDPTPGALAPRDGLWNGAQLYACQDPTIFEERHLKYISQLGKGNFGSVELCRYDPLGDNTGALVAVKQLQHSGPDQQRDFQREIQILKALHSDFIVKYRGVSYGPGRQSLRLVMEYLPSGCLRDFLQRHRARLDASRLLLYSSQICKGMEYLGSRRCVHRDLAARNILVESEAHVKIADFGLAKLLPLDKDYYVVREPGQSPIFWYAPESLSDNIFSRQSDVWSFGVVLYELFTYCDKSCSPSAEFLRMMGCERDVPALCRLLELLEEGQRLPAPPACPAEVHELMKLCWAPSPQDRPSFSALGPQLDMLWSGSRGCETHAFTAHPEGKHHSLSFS
The assay is described as follows: Induction of JAK3 degradation in human Jurkat cells at 1 uM incubated for 6 hrs by Western blot analysis.

Assay [4] concerns the target T1, Tyrosine-protein kinase JAK1. The assay is described as follows: Induction of JAK1 degradation in human Jurkat cells incubated for 24 hrs.
Assay [5] addresses T3, Non-receptor tyrosine-protein kinase TYK2 (Homo sapiens, UniProt P29597). The assay is described as follows: Induction of TYK2 degradation in human Jurkat cells at 100 nM incubated for 24 hrs relative to control.
In assay [6] the target is T3, Non-receptor tyrosine-protein kinase TYK2. The assay is described as follows: Induction of TYK2 degradation in human Jurkat cells incubated for 24 hrs.
Assay [7] concerns the target T1, Tyrosine-protein kinase JAK1. The assay is described as follows: Induction of JAK1 degradation in human Jurkat cells at 10 uM incubated for 24 hrs relative to control.
Assay [8] has as its target T3, Non-receptor tyrosine-protein kinase TYK2. The assay is described as follows: Induction of TYK2 degradation in human Jurkat cells at 1 uM incubated for 6 hrs by Western blot analysis.
Assay [9] has the same target. The experiment in a line: Induction of TYK2 degradation in human Jurkat cells at 10 uM incubated for 24 hrs by Western blot analysis relative to control.
Assay [10] shares this target. The assay is described as follows: Induction of TYK2 degradation in human Jurkat cells at 1 uM incubated for 24 hrs in presence of 6-(5-fluoropyridin-2-ylamino)-4-(2-methoxy-3-(methylcarbamoyl)phenylamino)-N-methylnicotinamide by Western blot analysis.
Assay [11] shares this target. The experiment in a line: Induction of TYK2 degradation in human Jurkat cells at 1 uM by Western blot analysis. As to conditions: time 3-24 hrs, TDE = time-dependent effect.
For assay [12] the target is unchanged. The assay is described as follows: Induction of TYK2 degradation in human Jurkat cells at 1 to 10 uM pretreated with MG-132 followed by compound treatment for 24 hrs by Western blot analysis. As to conditions: dose 1-10 µM.
For assay [13] the target is unchanged. The experiment in a line: Induction of TYK2 degradation in human Jurkat cells incubated for 24 hrs by Western blot analysis.
Assay [14] has the same target. The assay is described as follows: Induction of TYK2 degradation in human Jurkat cells assessed as reduction in TYK2 mRNA expression level up to 10 uM incubated for 6 to 24 hrs by quantitative-PCR analysis. As to conditions: time 6-24 hrs.
The target is the same in assay [15]. The assay is described as follows: Induction of TYK2 degradation in human Jurkat cells at 10 uM incubated for 24 hrs by Western blot analysis.
Assay [16] deals with T1, Tyrosine-protein kinase JAK1. The experiment in a line: Induction of JAK1 degradation in human Jurkat cells at 1 uM incubated for 24 hrs relative to control.
Assay [17] concerns the target T3, Non-receptor tyrosine-protein kinase TYK2. The assay is described as follows: Induction of TYK2 degradation in human Jurkat cells at 1 uM incubated for 24 hrs relative to control.

T3 sequence (P29597 whole entry): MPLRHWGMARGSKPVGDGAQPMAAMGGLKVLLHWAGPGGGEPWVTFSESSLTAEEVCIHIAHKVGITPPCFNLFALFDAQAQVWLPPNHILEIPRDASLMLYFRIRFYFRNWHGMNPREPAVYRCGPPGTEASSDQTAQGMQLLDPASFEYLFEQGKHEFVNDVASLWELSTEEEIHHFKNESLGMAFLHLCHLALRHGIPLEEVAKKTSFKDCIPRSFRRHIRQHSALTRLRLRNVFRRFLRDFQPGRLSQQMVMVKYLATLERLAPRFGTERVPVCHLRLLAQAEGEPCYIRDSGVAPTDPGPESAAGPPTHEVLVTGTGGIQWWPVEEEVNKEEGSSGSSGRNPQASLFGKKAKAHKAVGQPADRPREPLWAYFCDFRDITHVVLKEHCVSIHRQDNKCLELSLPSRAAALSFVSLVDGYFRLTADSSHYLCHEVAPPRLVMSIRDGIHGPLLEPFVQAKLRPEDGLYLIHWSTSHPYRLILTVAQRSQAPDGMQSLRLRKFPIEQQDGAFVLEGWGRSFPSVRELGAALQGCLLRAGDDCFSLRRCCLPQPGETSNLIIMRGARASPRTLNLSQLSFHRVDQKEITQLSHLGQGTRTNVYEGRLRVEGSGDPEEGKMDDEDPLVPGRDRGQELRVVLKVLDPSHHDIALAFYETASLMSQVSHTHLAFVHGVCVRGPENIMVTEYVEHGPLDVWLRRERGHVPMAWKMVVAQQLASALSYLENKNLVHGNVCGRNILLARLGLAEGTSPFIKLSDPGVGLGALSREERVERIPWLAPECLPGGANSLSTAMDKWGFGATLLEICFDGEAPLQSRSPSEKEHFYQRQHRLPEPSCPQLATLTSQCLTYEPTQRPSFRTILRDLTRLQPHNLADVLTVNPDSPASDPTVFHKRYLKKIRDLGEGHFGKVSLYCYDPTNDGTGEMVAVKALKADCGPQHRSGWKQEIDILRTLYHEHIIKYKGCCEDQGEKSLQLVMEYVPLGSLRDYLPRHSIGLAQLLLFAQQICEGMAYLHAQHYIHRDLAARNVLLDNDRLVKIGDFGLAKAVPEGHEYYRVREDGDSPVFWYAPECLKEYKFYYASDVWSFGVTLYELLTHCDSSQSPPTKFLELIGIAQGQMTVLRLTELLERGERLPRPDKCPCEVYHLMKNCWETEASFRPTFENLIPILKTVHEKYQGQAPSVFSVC
T1 sequence (P23458 whole entry): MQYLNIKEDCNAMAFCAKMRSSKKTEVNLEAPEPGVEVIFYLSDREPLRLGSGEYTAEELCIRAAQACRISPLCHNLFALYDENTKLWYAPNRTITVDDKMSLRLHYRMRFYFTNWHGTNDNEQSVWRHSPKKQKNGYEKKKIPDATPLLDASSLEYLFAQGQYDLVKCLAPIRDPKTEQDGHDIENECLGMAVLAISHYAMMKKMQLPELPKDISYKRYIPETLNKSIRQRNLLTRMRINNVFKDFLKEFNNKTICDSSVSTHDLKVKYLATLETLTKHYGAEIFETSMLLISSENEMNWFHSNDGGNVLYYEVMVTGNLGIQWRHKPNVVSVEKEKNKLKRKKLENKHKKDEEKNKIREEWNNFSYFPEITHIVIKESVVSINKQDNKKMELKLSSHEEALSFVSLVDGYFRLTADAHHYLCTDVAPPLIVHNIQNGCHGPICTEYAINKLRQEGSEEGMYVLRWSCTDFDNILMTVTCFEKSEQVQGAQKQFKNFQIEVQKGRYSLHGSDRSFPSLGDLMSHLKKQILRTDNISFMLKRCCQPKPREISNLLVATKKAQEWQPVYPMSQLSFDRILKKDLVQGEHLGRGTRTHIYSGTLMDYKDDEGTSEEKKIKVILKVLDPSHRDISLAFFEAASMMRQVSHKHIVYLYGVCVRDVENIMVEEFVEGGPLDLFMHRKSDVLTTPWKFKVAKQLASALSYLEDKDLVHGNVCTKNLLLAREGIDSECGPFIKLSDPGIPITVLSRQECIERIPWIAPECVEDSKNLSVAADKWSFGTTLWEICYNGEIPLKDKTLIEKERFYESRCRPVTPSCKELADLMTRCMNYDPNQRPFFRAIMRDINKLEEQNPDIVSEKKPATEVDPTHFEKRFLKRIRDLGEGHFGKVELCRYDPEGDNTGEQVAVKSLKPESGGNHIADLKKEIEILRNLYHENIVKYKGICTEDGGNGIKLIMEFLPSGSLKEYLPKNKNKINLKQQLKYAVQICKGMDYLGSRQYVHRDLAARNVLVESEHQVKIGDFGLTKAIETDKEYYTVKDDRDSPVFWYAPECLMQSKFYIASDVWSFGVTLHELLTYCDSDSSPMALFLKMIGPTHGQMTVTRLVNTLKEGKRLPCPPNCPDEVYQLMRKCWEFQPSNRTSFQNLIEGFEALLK
Chain of Tyrosine-protein kinase JAK2 (Homo sapiens) (O60674 whole entry): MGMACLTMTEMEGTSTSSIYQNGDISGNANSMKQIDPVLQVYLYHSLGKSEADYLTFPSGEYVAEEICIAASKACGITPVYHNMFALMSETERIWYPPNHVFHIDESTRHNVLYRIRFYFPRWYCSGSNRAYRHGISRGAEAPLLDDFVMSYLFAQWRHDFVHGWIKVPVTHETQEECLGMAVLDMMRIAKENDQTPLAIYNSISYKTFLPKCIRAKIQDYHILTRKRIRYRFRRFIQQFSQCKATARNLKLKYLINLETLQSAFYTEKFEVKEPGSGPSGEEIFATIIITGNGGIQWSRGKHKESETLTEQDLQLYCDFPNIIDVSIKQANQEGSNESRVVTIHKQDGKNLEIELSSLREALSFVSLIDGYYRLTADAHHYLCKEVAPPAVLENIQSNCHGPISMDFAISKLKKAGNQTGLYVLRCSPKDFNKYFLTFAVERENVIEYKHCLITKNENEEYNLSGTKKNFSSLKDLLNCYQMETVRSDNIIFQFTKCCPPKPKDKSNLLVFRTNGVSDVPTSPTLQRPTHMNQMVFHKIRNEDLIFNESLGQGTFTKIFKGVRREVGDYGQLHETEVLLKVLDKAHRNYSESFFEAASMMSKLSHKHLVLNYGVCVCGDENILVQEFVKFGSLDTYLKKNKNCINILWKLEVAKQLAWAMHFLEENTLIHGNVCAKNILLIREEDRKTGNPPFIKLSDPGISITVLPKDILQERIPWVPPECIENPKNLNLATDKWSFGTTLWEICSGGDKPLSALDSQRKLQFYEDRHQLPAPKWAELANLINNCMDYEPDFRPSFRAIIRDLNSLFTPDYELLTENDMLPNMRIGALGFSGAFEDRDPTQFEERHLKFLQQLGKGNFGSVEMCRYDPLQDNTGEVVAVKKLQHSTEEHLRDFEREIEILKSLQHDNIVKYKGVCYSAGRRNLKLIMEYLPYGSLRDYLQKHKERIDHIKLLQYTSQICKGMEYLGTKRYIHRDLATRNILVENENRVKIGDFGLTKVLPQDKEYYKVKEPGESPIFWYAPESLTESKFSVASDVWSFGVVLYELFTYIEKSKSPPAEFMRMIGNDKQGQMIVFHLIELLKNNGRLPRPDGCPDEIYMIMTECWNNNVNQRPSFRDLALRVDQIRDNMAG

In the case of `CNC(=O)c1cnc(Nc2ccc(C(=O)NCCCCCC(=O)N[C@H](C(=O)N3C[C@H](O)C[C@H]3C(=O)NCc3ccc(-c4scnc4C)cc3)C(C)(C)C)cn2)cc1Nc1cccc(C(=O)NC)c1OC`, the outcome in assay [1], in assay [2] and in [3] was inactive.

On to `CNC(=O)c1cnc(Nc2ccc(C(=O)NCCCCCCCCCCCC(=O)N[C@H](C(=O)N3C[C@H](O)C[C@H]3C(=O)NCc3ccc(-c4scnc4C)cc3)C(C)(C)C)cn2)cc1Nc1cccc(C(=O)NC)c1OC`, for which the result in assay [1], in [2] and in assay [3] was inactive.

As a reminder, the DC50 is the concentration at which degradation of the target reaches its halfway point. By Emax is commonly meant the size of the effect at its maximum, as opposed to the concentration needed. For `CNC(=O)c1cnc(Nc2ccc(C(=O)NCCCCCCCCCC(=O)N[C@H](C(=O)N3C[C@H](O)C[C@H]3C(=O)NCc3ccc(-c4scnc4C)cc3)C(C)(C)C)cn2)cc1Nc1cccc(-c2ncn(C)n2)c1OC`, the DC50 is no less than 10000 nM in assay [4] and 14 nM in [6]. Besides, the Emax came out at 78% in assay [5] and 25% in assay [7]. Further, the result in [2] was Active.

On to `CNC(=O)c1cnc(Nc2ccc(C(=O)NCCCCCCCCCCC(=O)N[C@H](C(=O)N3C[C@H](O)C[C@H]3C(=O)NCc3ccc(-c4scnc4C)cc3)C(C)(C)C)cn2)cc1Nc1cccc(C(=O)NC)c1OC`, for which the outcome in assay [1], in assay [2] and in [3] was inactive.

As to `CNC(=O)c1cnc(Nc2ccc(C(=O)NCCCCCCCCCC(=O)N[C@H](C(=O)N3C[C@H](O)C[C@H]3C(=O)NCc3ccc(-c4scnc4C)cc3)C(C)(C)C)cn2)cc1Nc1cccc(C(=O)NC)c1OC`, the result in [1], in [2], in [3] and in assay [14] was inactive. The result in assay [8], in assay [10] and in assay [12] was Active. In [9], this molecule returned an Emax of 77%. Further, in [11], the Activity entry was “Tde”. The molecule also yielded a DC50 in [13] of 230 nM.

For `Cc1ncsc1-c1ccc(CNC(=O)[C@@H]2C[C@@H](O)CN2C(=O)[C@@H](NC(=O)C2(C#N)CC2)C(C)(C)C)cc1`, in assay [10], the outcome was inactive. In addition, in assay [15], the outcome was Active.

Turning to `CNC(=O)c1cnc(Nc2ccc(C(=O)NCCCC(=O)N[C@H](C(=O)N3C[C@H](O)C[C@H]3C(=O)NCc3ccc(-c4scnc4C)cc3)C(C)(C)C)cn2)cc1Nc1cccc(C(=O)NC)c1OC`, the result in assay [1], in [2] and in assay [3] was Active.

For `CNC(=O)c1cnc(Nc2ccc(F)cn2)cc1Nc1cccc(C(=O)NC)c1OC`, the outcome in assay [15] was Active.

For the molecule `CNC(=O)c1cccc(Nc2cc(Nc3ccc(C(=O)NCCCCCCCCCC(=O)N[C@H](C(=O)N4C[C@H](O)C[C@H]4C(=O)NCc4ccc(-c5scnc5C)cc4)C(C)(C)C)cn3)ncc2C(N)=O)c1OC`, the maximal effect (Emax) in assay [16] turned out to be 49%; in assay [17], 85%. In addition, the result in assay [1] was Active. Further, the DC50 stood at 1100 nM in assay [4] and 23 nM in assay [6].

Take `CNC(=O)c1cnc(Nc2ccc(C(=O)NCCCCCCCC(=O)N[C@H](C(=O)N3C[C@H](O)C[C@H]3C(=O)NCc3ccc(-c4scnc4C)cc3)C(C)(C)C)cn2)cc1Nc1cccc(C(=O)NC)c1OC`: the outcome in assay [1], in assay [2] and in assay [3] was inactive.

On to `CNC(=O)c1cnc(Nc2ccc(C(=O)NCCCCCCCCC(=O)N[C@H](C(=O)N3C[C@H](O)C[C@H]3C(=O)NCc3ccc(-c4scnc4C)cc3)C(C)(C)C)cn2)cc1Nc1cccc(C(=O)NC)c1OC`, for which the result in assay [1], in assay [2] and in [3] was inactive.
